Reference: the NIST ThermoML archive (doi:10.1021/je060271a)
Several values for one entry are separate records, joined by “and”; a condition that tells them apart may be missing. Equal entries are not always repeated.

Details: 323.16 K, Liquid, Vibrating tube method

CCCCCC(=O)OCC(COC(=O)CCCCC)(COC(=O)CCCCC)COC(=O)CCCCC [pentaerythritol tetrahexanoate]
Details | mass density
16338 kPa | 983.8 kg/m3 and 983.7 kg/m3
16340 kPa | 983.7 kg/m3
16341 kPa | 983.7 kg/m3 and 983.8 kg/m3
16342 kPa | 983.8 kg/m3 and 983.7 kg/m3
16347 kPa | 983.6 kg/m3
16370 kPa | 983.7 kg/m3
16396 kPa | 983.7 kg/m3
16427 kPa | 983.7 kg/m3
16452 kPa | 983.7 kg/m3
16482 kPa | 983.8 kg/m3
16510 kPa | 983.8 kg/m3
16538 kPa | 983.8 kg/m3
16562 kPa | 983.9 kg/m3
16590 kPa | 983.8 kg/m3
16620 kPa | 983.9 kg/m3
16644 kPa | 983.9 kg/m3
16673 kPa | 984 kg/m3
16702 kPa | 984.1 kg/m3
16730 kPa | 984 kg/m3
16755 kPa | 984 kg/m3
16784 kPa | 984 kg/m3
16815 kPa | 984 kg/m3
16841 kPa | 984 kg/m3
16870 kPa | 984.1 kg/m3
16900 kPa | 984.1 kg/m3
16925 kPa | 984.2 kg/m3
16955 kPa | 984.2 kg/m3
16986 kPa | 984.2 kg/m3
17011 kPa | 984.1 kg/m3
17041 kPa | 984.2 kg/m3
17072 kPa | 984.1 kg/m3
17102 kPa | 984.2 kg/m3
17128 kPa | 984.2 kg/m3
17159 kPa | 984.3 kg/m3
17192 kPa | 984.3 kg/m3
17216 kPa | 984.4 kg/m3
17248 kPa | 984.3 kg/m3
17278 kPa | 984.4 kg/m3
17303 kPa | 984.4 kg/m3
17334 kPa | 984.3 kg/m3
17365 kPa | 984.4 kg/m3
17396 kPa | 984.4 kg/m3
17427 kPa | 984.3 kg/m3
17452 kPa | 984.4 kg/m3
17481 kPa | 984.4 kg/m3
17510 kPa | 984.4 kg/m3
17540 kPa | 984.5 kg/m3
17565 kPa | 984.5 kg/m3
17594 kPa | 984.6 kg/m3
17623 kPa | 984.6 kg/m3
17652 kPa | 984.7 kg/m3
17682 kPa | 984.5 kg/m3
17706 kPa | 984.6 kg/m3
17736 kPa | 984.6 kg/m3
17766 kPa | 984.7 kg/m3
17796 kPa | 984.7 kg/m3
17826 kPa | 984.6 kg/m3
17852 kPa | 984.7 kg/m3
17882 kPa | 984.9 kg/m3
17913 kPa | 984.8 kg/m3
17940 kPa | 984.8 kg/m3
17970 kPa | 984.8 kg/m3
18001 kPa | 984.8 kg/m3
18032 kPa | 984.8 kg/m3
18058 kPa | 984.9 kg/m3
18088 kPa | 984.8 kg/m3
18119 kPa | 984.8 kg/m3
18145 kPa | 984.9 kg/m3
18174 kPa | 984.9 kg/m3
18203 kPa | 985 kg/m3
18231 kPa | 984.9 kg/m3
18260 kPa | 984.9 kg/m3
18284 kPa | 985 kg/m3
18312 kPa | 984.8 kg/m3
18341 kPa | 985 kg/m3
18370 kPa | 985 kg/m3
18394 kPa | 985 kg/m3
18423 kPa | 985 kg/m3
18452 kPa | 985.1 kg/m3
18481 kPa | 985.1 kg/m3
18510 kPa | 985.1 kg/m3
18540 kPa | 985 kg/m3
18565 kPa | 985.1 kg/m3
18594 kPa | 985.2 kg/m3
18624 kPa | 985.2 kg/m3
18649 kPa | 985.2 kg/m3
18679 kPa | 985.1 kg/m3
18709 kPa | 985.2 kg/m3
18737 kPa | 985.2 kg/m3
18761 kPa | 985.2 kg/m3
18789 kPa | 985.3 kg/m3
18818 kPa | 985.2 kg/m3
18846 kPa | 985.2 kg/m3
18876 kPa | 985.4 kg/m3
18900 kPa | 985.4 kg/m3
18928 kPa | 985.4 kg/m3
18958 kPa | 985.4 kg/m3
18987 kPa | 985.5 kg/m3
19017 kPa | 985.5 kg/m3
19042 kPa | 985.4 kg/m3
19071 kPa | 985.4 kg/m3
19100 kPa | 985.6 kg/m3
19129 kPa | 985.6 kg/m3
19380 kPa | 985.8 kg/m3
19405 kPa | 985.5 kg/m3
19434 kPa | 985.7 kg/m3
19458 kPa | 985.7 kg/m3
19486 kPa | 985.6 kg/m3
19516 kPa | 985.7 kg/m3
19545 kPa | 985.8 kg/m3
19574 kPa | 985.7 kg/m3
19599 kPa | 985.9 kg/m3
19628 kPa | 985.9 kg/m3
19658 kPa | 985.9 kg/m3
19688 kPa | 985.9 kg/m3
19718 kPa | 985.8 kg/m3
19746 kPa | 986 kg/m3
19776 kPa | 986 kg/m3
19801 kPa | 985.9 kg/m3
19830 kPa | 986 kg/m3
19861 kPa | 986 kg/m3
19891 kPa | 986.1 kg/m3
19922 kPa | 985.9 kg/m3
19952 kPa | 986 kg/m3
19978 kPa | 986 kg/m3
20009 kPa | 986 kg/m3
20040 kPa | 986.1 kg/m3
20067 kPa | 986.1 kg/m3
20098 kPa | 986.2 kg/m3
20130 kPa | 986.1 kg/m3
20162 kPa | 986.2 kg/m3
20188 kPa | 986.1 kg/m3
20219 kPa | 986.2 kg/m3
20251 kPa | 986.1 kg/m3
20282 kPa | 986.3 kg/m3
20314 kPa | 986.1 kg/m3
20339 kPa | 986.2 kg/m3
20396 kPa | 986.2 kg/m3
20449 kPa | 986.4 kg/m3
20477 kPa | 986.4 kg/m3
20506 kPa | 986.4 kg/m3
20535 kPa | 986.4 kg/m3
20558 kPa | 986.3 kg/m3
20587 kPa | 986.4 kg/m3
20616 kPa | 986.5 kg/m3
20645 kPa | 986.3 kg/m3
20674 kPa | 986.4 kg/m3
20698 kPa | 986.4 kg/m3
20727 kPa | 986.4 kg/m3
20756 kPa | 986.4 kg/m3
20787 kPa | 986.5 kg/m3
20811 kPa | 986.6 kg/m3
20841 kPa | 986.5 kg/m3
20871 kPa | 986.5 kg/m3
20925 kPa | 986.7 kg/m3
20955 kPa | 986.6 kg/m3
20984 kPa | 986.5 kg/m3
21013 kPa | 986.7 kg/m3
21035 kPa | 986.7 kg/m3
21061 kPa | 986.7 kg/m3
21087 kPa | 986.7 kg/m3
21113 kPa | 986.7 kg/m3
21139 kPa | 986.7 kg/m3
21161 kPa | 986.8 kg/m3
21187 kPa | 986.8 kg/m3
21214 kPa | 986.8 kg/m3
21236 kPa | 986.9 kg/m3
21262 kPa | 986.9 kg/m3
21289 kPa | 987 kg/m3
21316 kPa | 986.8 kg/m3
21342 kPa | 986.8 kg/m3
21368 kPa | 986.9 kg/m3
21391 kPa | 986.9 kg/m3
21418 kPa | 987 kg/m3
21445 kPa | 987 kg/m3
21467 kPa | 986.9 kg/m3
21494 kPa | 987 kg/m3
21522 kPa | 986.9 kg/m3
21550 kPa | 987.1 kg/m3
21572 kPa | 987.1 kg/m3
21599 kPa | 987.1 kg/m3
21626 kPa | 987 kg/m3
21654 kPa | 987 kg/m3
21681 kPa | 987.1 kg/m3
21708 kPa | 987.1 kg/m3
21730 kPa | 987.1 kg/m3
21755 kPa | 987.2 kg/m3
21780 kPa | 987.2 kg/m3
21806 kPa | 987.2 kg/m3
21832 kPa | 987.2 kg/m3
21854 kPa | 987.2 kg/m3
21880 kPa | 987.3 kg/m3
21902 kPa | 987.2 kg/m3
21928 kPa | 987.2 kg/m3
21954 kPa | 987.4 kg/m3
21980 kPa | 987.2 kg/m3
22005 kPa | 987.2 kg/m3
22031 kPa | 987.3 kg/m3
22053 kPa | 987.4 kg/m3
22079 kPa | 987.4 kg/m3
22105 kPa | 987.4 kg/m3
22131 kPa | 987.3 kg/m3
22154 kPa | 987.3 kg/m3
22182 kPa | 987.4 kg/m3
22208 kPa | 987.5 kg/m3
22231 kPa | 987.4 kg/m3
22541 kPa | 987.6 kg/m3
22566 kPa | 987.6 kg/m3
22591 kPa | 987.9 kg/m3
22616 kPa | 987.7 kg/m3
22641 kPa | 987.7 kg/m3
22688 kPa | 987.8 kg/m3
22713 kPa | 987.8 kg/m3
22739 kPa | 987.7 kg/m3
22760 kPa | 987.7 kg/m3
22786 kPa | 987.7 kg/m3
22812 kPa | 987.8 kg/m3
22838 kPa | 987.8 kg/m3
22858 kPa | 987.8 kg/m3
22884 kPa | 987.8 kg/m3
22910 kPa | 987.9 kg/m3
22936 kPa | 987.9 kg/m3
22957 kPa | 988 kg/m3
22983 kPa | 987.9 kg/m3
23009 kPa | 988 kg/m3
23035 kPa | 987.9 kg/m3
23061 kPa | 988 kg/m3
23083 kPa | 987.9 kg/m3
23110 kPa | 988.1 kg/m3
23136 kPa | 988.1 kg/m3
23162 kPa | 988 kg/m3
23189 kPa | 988.1 kg/m3
23215 kPa | 988 kg/m3
23238 kPa | 988 kg/m3
23264 kPa | 988.1 kg/m3
23292 kPa | 988 kg/m3
23319 kPa | 988.2 kg/m3
23346 kPa | 988.2 kg/m3
23370 kPa | 988.1 kg/m3
23397 kPa | 988.2 kg/m3
23424 kPa | 988.2 kg/m3
23447 kPa | 988.3 kg/m3
23473 kPa | 988.3 kg/m3
23498 kPa | 988.2 kg/m3
23522 kPa | 988.3 kg/m3
23542 kPa | 988.2 kg/m3
23566 kPa | 988.2 kg/m3
23591 kPa | 988.3 kg/m3
23615 kPa | 988.3 kg/m3
23641 kPa | 988.4 kg/m3
23661 kPa | 988.3 kg/m3
23686 kPa | 988.3 kg/m3
23710 kPa | 988.4 kg/m3
23736 kPa | 988.4 kg/m3
23761 kPa | 988.3 kg/m3
23782 kPa | 988.3 kg/m3
23807 kPa | 988.4 kg/m3
23832 kPa | 988.4 kg/m3
23858 kPa | 988.5 kg/m3
23879 kPa | 988.4 kg/m3
23904 kPa | 988.4 kg/m3
23930 kPa | 988.5 kg/m3
23956 kPa | 988.4 kg/m3
23981 kPa | 988.6 kg/m3
24006 kPa | 988.6 kg/m3
24028 kPa | 988.5 kg/m3
24053 kPa | 988.5 kg/m3
24079 kPa | 988.5 kg/m3
24103 kPa | 988.5 kg/m3
24128 kPa | 988.6 kg/m3
24154 kPa | 988.6 kg/m3
24180 kPa | 988.6 kg/m3
24202 kPa | 988.7 kg/m3
24228 kPa | 988.6 kg/m3
24254 kPa | 988.6 kg/m3
24281 kPa | 988.8 kg/m3
24303 kPa | 988.7 kg/m3
24329 kPa | 988.8 kg/m3
24355 kPa | 988.7 kg/m3
24382 kPa | 988.8 kg/m3
24410 kPa | 988.7 kg/m3
24431 kPa | 988.6 kg/m3
24458 kPa | 988.8 kg/m3
24480 kPa | 988.9 kg/m3
24507 kPa | 988.9 kg/m3
24535 kPa | 989 kg/m3
24562 kPa | 988.8 kg/m3
24589 kPa | 989 kg/m3
24612 kPa | 989 kg/m3
